Earlier results, collected in article PMC3925743 (Journal of controlled release : official journal of the …, 2013).

Test system: prostate cancer LNCaP cells

protamine
delivery of siRNA into cells: cannot deliver siRNA
